Reference: the supplement of paper PMC4977894
Where a name gives a salt, the structure may show the parent alone. ± gives the standard deviation of the averaged measurements.

What was measured:
[1] = system: Homo sapiens (human subject panel, olfactory perception); assay: perceived odor familiarity rating (rating 0-100); higher = more familiar
Method in brief: (§1)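 Stimuli were molecules diluted in paraffin oil at high and low concentrations, with 1 mL of each sniffed in randomized order across ten visits of 100 stimuli. Participants were 55 healthy humans aged 18–50, excluding the six lowest performers. Subjects who smelled a stimulus moved a computerized slider away from its starting point of 50, and positions were rescaled to 0–100. Familiarity, intensity and pleasantness are each reported as an average over subjects.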

[2] = system: Homo sapiens (human subject panel, olfactory perception); assay: perceived odor intensity rating (rating 0-100); higher = stronger perceived smell
Method in brief: as §1

[3] = system: Homo sapiens (human subject panel, olfactory perception); assay: perceived odor pleasantness rating (rating 0-100); higher = more pleasant
Method in brief: as §1

[4] = odor dilution in paraffin oil: 1/1,000
[5] = odor dilution in paraffin oil: 1/100,000
[6] = odor dilution in paraffin oil: 1/10,000,000
[7] = odor dilution in paraffin oil: 1/10

Row | SMILES | perceived odor familiarity rating [1, 4] | perceived odor familiarity rating [1, 5] | perceived odor intensity rating [2, 4] | perceived odor intensity rating [2, 5] | perceived odor pleasantness rating [3, 4] | perceived odor pleasantness rating [3, 5] | perceived odor familiarity rating [1, 6] | perceived odor intensity rating [2, 6] | perceived odor pleasantness rating [3, 6] | perceived odor familiarity rating [1, 7] | perceived odor intensity rating [2, 7] | perceived odor pleasantness rating [3, 7]
1 | CCCCCCC(=O)O [Heptanoic Acid] | 43.8 ± 31 | 36.5 ± 28 | 77.5 ± 23 | 49 ± 32 | 21.5 ± 20 | 30.4 ± 25 | – | – | – | – | – | –
2 | CCCCCC=O [Hexanal] | – | 41.5 ± 33 | – | 78.2 ± 21 | – | 20.4 ± 20 | 29 ± 26 | 15 ± 16 | 47.2 ± 18 | – | – | –
3 | CCCCCCOC=O [Hexyl Formate] | 42.8 ± 32 | 35.5 ± 28 | 60.7 ± 29 | 33.9 ± 30 | 49 ± 28 | 42.2 ± 23 | – | – | – | – | – | –
4 | CCCCCCOC(=O)c1ccccc1 [Hexyl benzoate (replicate)] | 36.7 ± 29 | – | 35.9 ± 32 | – | 40.3 ± 23 | – | – | – | – | 38.4 ± 28 | 71.5 ± 26 | 31.9 ± 24
5 | CCCCCCOC(=O)c1ccccc1 [Hexyl benzoate] | 37.8 ± 28 | – | 40.7 ± 33 | – | 37.4 ± 27 | – | – | – | – | 47.5 ± 28 | 69.5 ± 25 | 34.7 ± 25
6 | CCCCCCOC(=O)CCCCC [Hexyl hexanoate] | 38 ± 29 | – | 34.4 ± 26 | – | 48.2 ± 23 | – | – | – | – | 39 ± 26 | 67.7 ± 26 | 43.8 ± 25
7 | CCCCCCCC(=O)OCCCCCC [Hexyl octanoate] | 42.9 ± 32 | 28 ± 23 | 23 ± 19 | 16.5 ± 24 | 52.4 ± 18 | 46.4 ± 22 | – | – | – | – | – | –
8 | CCCCCCOC(=O)CC [Hexyl propionate] | 43.1 ± 28 | 40.8 ± 33 | 59 ± 32 | 27.6 ± 32 | 52.1 ± 24 | 38.5 ± 22 | – | – | – | – | – | –
9 | II [Iodine] | 41 ± 37 | – | 32.4 ± 30 | – | 51.6 ± 30 | – | – | – | – | 48.4 ± 33 | 77.7 ± 29 | 13.7 ± 22
10 | IC(I)I [Iodoform] | 51.2 ± 29 | – | 68.4 ± 23 | – | 36.4 ± 22 | – | – | – | – | 52.6 ± 33 | 84.4 ± 16 | 30.7 ± 26
11 | CCCC(=O)OCCC(C)C [Isoamyl butyrate] | 51.4 ± 31 | 36.4 ± 32 | 63.4 ± 26 | 20.4 ± 28 | 52.8 ± 28 | 45.5 ± 23 | – | – | – | – | – | –
12 | CC(C)CCOC(=O)/C=C/c1ccccc1 [Isoamyl cinnamate] | 25.2 ± 25 | 40.7 ± 32 | 18.9 ± 23 | 22.5 ± 26 | 38.8 ± 23 | 56.7 ± 24 | – | – | – | – | – | –
13 | CCCCCCCCCCCC(=O)OCCC(C)C [Isoamyl laurate] | 31.8 ± 22 | – | 20.3 ± 22 | – | 47.7 ± 22 | – | – | – | – | 41.5 ± 29 | 59.9 ± 29 | 33.7 ± 25
14 | CCCCCCCC(=O)OCCC(C)C [Isoamyl octanoate] | 45.4 ± 32 | – | 24.3 ± 28 | – | 57.6 ± 22 | – | – | – | – | 45.2 ± 30 | 62.8 ± 29 | 50 ± 25
15 | CC(C)CCN [Isoamylamine] | – | 37.5 ± 29 | – | 37.5 ± 30 | – | 40.2 ± 25 | 32.1 ± 27 | 15.1 ± 27 | 46.1 ± 22 | – | – | –
16 | CC(C)COC(=O)c1ccccc1 [Isobutyl benzoate] | 41.1 ± 29 | – | 36.7 ± 31 | – | 49 ± 26 | – | – | – | – | 53.3 ± 30 | 78.7 ± 20 | 47.6 ± 29
17 | CC(C)COC(=O)/C=C/c1ccccc1 [Isobutyl cinnamate] | 38.6 ± 30 | – | 49.3 ± 33 | – | 54 ± 27 | – | – | – | – | 45.6 ± 31 | 70.4 ± 24 | 41.3 ± 30
18 | CC(C)COC(=O)Cc1ccccc1 [Isobutyl phenylacetate] | 49 ± 31 | 33.7 ± 29 | 52 ± 29 | 15.7 ± 21 | 45.5 ± 30 | 54.3 ± 24 | – | – | – | – | – | –

Row | SMILES | perceived odor familiarity rating [1, 4] | perceived odor familiarity rating [1, 5] | perceived odor intensity rating [2, 4] | perceived odor intensity rating [2, 5] | perceived odor pleasantness rating [3, 4] | perceived odor pleasantness rating [3, 5] | perceived odor familiarity rating [1, 6] | perceived odor intensity rating [2, 6] | perceived odor pleasantness rating [3, 6] | perceived odor familiarity rating [1, 7] | perceived odor intensity rating [2, 7] | perceived odor pleasantness rating [3, 7]
19 | CCC(=O)OCC(C)C [Isobutyl propionate] | 48 ± 27 | 41 ± 28 | 57.3 ± 30 | 31.5 ± 28 | 58.6 ± 23 | 47.8 ± 23 | – | – | – | – | – | –
20 | CC(C)C=O [Isobutyraldehyde] | 43.1 ± 29 | 39 ± 31 | 77.5 ± 24 | 61.6 ± 28 | 24.3 ± 22 | 27.3 ± 19 | – | – | – | – | – | –
21 | CC(C)C(=O)O [Isobutyric acid] | – | 43.5 ± 31 | – | 56.8 ± 30 | – | 25 ± 20 | 39.6 ± 26 | 22.6 ± 28 | 49 ± 27 | – | – | –
22 | C/C=C\c1ccc(O)c(OC)c1 [Isoeugenol] | 71.4 ± 27 | 60 ± 29 | 81.6 ± 15 | 64.5 ± 23 | 68.4 ± 26 | 66.9 ± 24 | – | – | – | – | – | –
23 | CC=Cc1ccc(OC(=O)Cc2ccccc2)c(OC)c1 [Isoeugenyl phenylacetate] | 68 ± 29 | 55.8 ± 30 | 78.7 ± 18 | 42.4 ± 32 | 56.2 ± 32 | 59.7 ± 26 | – | – | – | – | – | –
24 | CC1=CC(=O)CC(C)(C)C1 [Isophorone] | 50.2 ± 35 | 40.4 ± 28 | 60.1 ± 25 | 21.6 ± 24 | 51.5 ± 25 | 54.3 ± 24 | – | – | – | – | – | –
25 | C=C(C)OC(C)=O [Isopropenyl acetate] | – | 31.1 ± 27 | – | 27.1 ± 25 | – | 46.9 ± 24 | 38.2 ± 31 | 18.8 ± 26 | 45.5 ± 21 | – | – | –
26 | CC(C)O [Isopropyl alcohol] | 29.4 ± 29 | 36.5 ± 28 | 11.8 ± 18 | 21.9 ± 23 | 41.1 ± 24 | 38.3 ± 18 | – | – | – | – | – | –
27 | CCCCCCCCCCCCCC(=O)OC(C)C [Isopropyl myristate] | 35.2 ± 26 | – | 20.3 ± 25 | – | 50.6 ± 23 | – | – | – | – | 24.4 ± 24 | 26 ± 27 | 45.4 ± 21
28 | C/C=C/c1ccc2c(c1)OCO2 [Isosafrole] | 56.4 ± 30 | 29 ± 28 | 44.7 ± 30 | 14.4 ± 15 | 59.6 ± 24 | 54.6 ± 18 | – | – | – | – | – | –
29 | C[C@H](N)C(=O)O [L-Alanine] | 23.8 ± 22 | – | 14.7 ± 22 | – | 45.9 ± 20 | – | – | – | – | 40.9 ± 32 | 31.9 ± 30 | 55.7 ± 28
30 | N=C(N)NCCC[C@H](N)C(=O)O [L-Arginine] | 30.3 ± 24 | – | 20.4 ± 22 | – | 44.6 ± 19 | – | – | – | – | 29.4 ± 33 | 19.2 ± 25 | 47.9 ± 24
31 | N[C@@H](CS)C(=O)O [L-Cysteine] | 33.8 ± 28 | – | 33.4 ± 30 | – | 39 ± 23 | – | – | – | – | 46.2 ± 36 | 71.7 ± 30 | 12.8 ± 20
32 | N[C@@H](CCC(=O)O)C(=O)O [L-Glutamic acid] | 30.3 ± 31 | – | 29.8 ± 27 | – | 47.5 ± 26 | – | – | – | – | 34.7 ± 30 | 52.7 ± 31 | 37.1 ± 23
33 | NC(=O)CC[C@H](N)C(=O)O [L-Glutamine] | 32.6 ± 26 | 35.8 ± 30 | 29.1 ± 28 | 19 ± 27 | 51.7 ± 21 | 49.6 ± 27 | – | – | – | – | – | –
34 | N[C@@H](Cc1c[nH]cn1)C(=O)O [L-Histidine] | 28.5 ± 28 | – | 19.9 ± 24 | – | 44.3 ± 26 | – | – | – | – | 44.2 ± 29 | 53.2 ± 34 | 34.6 ± 26
35 | CC(C)C[C@H](N)C(=O)O [L-Leucine] | 42.9 ± 31 | – | 46.9 ± 29 | – | 46.4 ± 27 | – | – | – | – | 45.5 ± 31 | 70.9 ± 27 | 22.9 ± 26
36 | NCCCC[C@H](N)C(=O)O [L-Lysine] | 48.9 ± 31 | – | 59.1 ± 30 | – | 27.4 ± 22 | – | – | – | – | 45.4 ± 34 | 81.7 ± 22 | 18.5 ± 24
